Data set [1] concerns the target T1, Secretin receptor (Homo sapiens, UniProt P47872). Put plainly: Positive allosteric modulation of SCTR (unknown origin) overexpressed in CHO cells assessed as potentiation of SCT-induced cAMP production by measuring maximal response at 100 uM incubated for 20 mins by Lance cAMP assay relative to control (reference value: 100 %). The settings on record: filed as positive allosteric modulator. Format: functional, cell-based.

The target of data set [2] is T1, Secretin receptor. Put plainly: Negative allosteric modulation of SCTR (unknown origin) overexpressed in CHO cells assessed as decrease in SCT-induced cAMP production by measuring maximal response at 100 uM incubated for 20 mins by Lance cAMP assay relative to control (reference value: 100 %). The settings on record: filed as negative allosteric modulator. The data set is classed as functional, cell-based. A general note: Changes in cAMP serve as a functional read-out for many G protein-coupled receptors.

Data set [3] concerns Rattus norvegicus. Put plainly: Antihypertensive activity in anesthetized spontaneous hypertensive rat model assessed as reduction in mean arterial blood pressure at 0.26 microg/g, iv administered through tail vein and measured after 20 to 50 hrs by DSI telemetric transmitter based analysis relative to control. The settings on record: dose 0.26 µg/g, time 20-50 hrs. Format: functional. More on the design: scale not given: the % may be the effect or the level left.

In data set [4] the target is T1, Secretin receptor. Put plainly: Positive allosteric modulation of SCTR (unknown origin) expressed in CHO cells assessed as potentiation of SCT-induced cAMP production by measuring maximal response at 100 uM incubated for 20 mins in presence of 1 uM SCT by Lance cAMP assay (reference value: 100 +/- 0.03%). The settings on record: filed as positive allosteric modulator. Format: functional, cell-based.

Data set [5] addresses T1, Secretin receptor. Description: Positive allosteric modulation of SCTR (unknown origin) expressed in CHO cells assessed as potentiation of SCT-induced cAMP production by measuring maximal response at 1 uM incubated for 20 mins in presence of 1 uM SCT by Lance cAMP assay (reference value: 100 +/- 0.03%). The settings on record: filed as positive allosteric modulator. Format: functional, cell-based.

Data set [6] deals with T1, Secretin receptor. Description: Agonist activity at SCTR (unknown origin) expressed in CHO cells assessed as increase in cAMP production by measuring maximal response incubated for 20 mins Lance cAMP assay relative to control. The data set is classed as functional, cell-based.
Data set [7] concerns the target T1, Secretin receptor. Put plainly: Positive allosteric modulation of SCTR (unknown origin) expressed in CHO cells assessed as potentiation of SCT-induced cAMP production by measuring maximal response at 10 uM incubated for 20 mins in presence of 1 uM SCT by Lance cAMP assay (reference value: 100 +/- 0.03%). The data set is classed as functional, cell-based. The settings on record: filed as positive allosteric modulator.

Data set [8] concerns the target T1, Secretin receptor. Description: Synergistic agonist activity at SCTR (unknown origin) expressed in CHO cells assessed as fold increase in cAMP production at 100 uM incubated for 20 mins in presence of SCT by Lance cAMP assay (reference value: 4.13). Format: functional, cell-based. The settings on record: filed as agonist.
The nature of data set [9]: Drug concentration in C57 mouse blood at 1000 mg/kg, po administered via gavage measured at 24 hrs by LC-MS/MS analysis. The settings on record: read-out: Ct. The data set is classed as ADME, organism-based.
A short description of data set [10]: Cmax in C57 mouse blood at 1000 mg/kg, po administered via gavage measured upto 24 hrs by LC-MS/MS analysis. The data set is classed as ADME, organism-based. On the set-up: time < 24 hrs, dose 1000 mg/kg, route po.
Data set [11] addresses T1, Secretin receptor. Description: Agonist activity at SCTR (unknown origin) expressed in CHO cells assessed as increase in cAMP production incubated for 20 mins Lance cAMP assay. Format: functional, cell-based.
For data set [12], the system named is Rattus norvegicus. Description: Antihypertensive activity in anesthetized spontaneous hypertensive rat model assessed as reduction in mean arterial blood pressure at 30 mg/kg, po measured after 15 hrs relative to control. On the set-up: scale not given: the % may be the effect or the level left. Format: functional.
Data set [13] has as its system Rattus norvegicus. Put plainly: Antihypertensive activity in anesthetized spontaneous hypertensive rat model assessed as reduction in blood pressure at 0.26 microg/g, iv administered through tail vein and measured after 20 to 50 hrs by DSI telemetric transmitter based analysis. The data set is classed as functional, organism-based. The settings on record: dose 0.26 µg/g, time 20-50 hrs.

Data set [14] concerns Rattus norvegicus. Put plainly: Antihypertensive activity in anesthetized spontaneous hypertensive rat model assessed as reduction in mean arterial blood pressure at 50 mg/kg, po measured after 15 hrs relative to control. The data set is classed as functional. On the set-up: scale not given: the % may be the effect or the level left.
Data set [15] can be described thus: Half life in C57 mouse blood at 1000 mg/kg, po administered via gavage measured upto 24 hrs by LC-MS/MS analysis. The data set is classed as ADME, organism-based.
Data set [16] is described as follows: Drug concentration in C57 mouse blood at 1000 mg/kg, po administered via gavage measured after 12 hrs by LC-MS/MS analysis. Format: ADME, organism-based. The settings on record: read-out: Ct.
Data set [17] is described as follows: Tmax in C57 mouse blood at 1000 mg/kg, po administered via gavage measured upto 24 hrs by LC-MS/MS analysis. The data set is classed as ADME, organism-based.
Data set [18] in a line: Drug concentration in C57 mouse blood at 1000 mg/kg, po administered via gavage measured at 6 hrs by LC-MS/MS analysis. The data set is classed as ADME, organism-based. The settings on record: read-out: Ct.
Data set [19] has as its system Rattus norvegicus. Description: Antihypertensive activity in anesthetized spontaneous hypertensive rat model assessed as reduction in mean arterial blood pressure at 1 mg/kg, po measured within 20 hrs in presence of 0.3 mg/kg Azilsartan relative to control. On the set-up: scale not given: the % may be the effect or the level left. The data set is classed as functional.

This note sets out measurements from ChEMBL document CHEMBL5352393, “Discovery of small-molecule modulators of the secretin receptor: Purmorphamine as novel anti-hypertensive agent” (Eur J Med Chem, 2022).

Activity calls are given as the source filed them.

One may read the Emax as the greatest response seen or fitted, relative to the assay's reference. Broadly, the Cmax is the peak of the concentration-time curve. Usually EC50 stands for the concentration giving half of the maximal effect. What is called half-life is the time needed for the level to fall by half in the phase considered. For orientation: Tmax means the time from dosing to the highest level.

T1 sequence (P47872 whole entry): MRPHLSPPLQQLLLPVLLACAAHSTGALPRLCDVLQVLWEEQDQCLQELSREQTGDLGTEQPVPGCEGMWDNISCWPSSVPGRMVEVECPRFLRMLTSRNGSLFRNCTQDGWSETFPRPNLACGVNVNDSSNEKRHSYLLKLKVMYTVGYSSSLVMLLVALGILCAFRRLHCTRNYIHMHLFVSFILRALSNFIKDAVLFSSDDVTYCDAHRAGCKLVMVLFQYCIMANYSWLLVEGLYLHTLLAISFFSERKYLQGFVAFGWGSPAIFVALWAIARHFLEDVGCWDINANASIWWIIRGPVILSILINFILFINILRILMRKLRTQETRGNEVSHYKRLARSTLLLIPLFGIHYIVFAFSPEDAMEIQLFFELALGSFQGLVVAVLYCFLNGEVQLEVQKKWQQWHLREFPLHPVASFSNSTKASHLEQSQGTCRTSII

As for `Oc1cc(N2CCOCC2)ccc1Nc1nc(Oc2cccc3ccccc23)nc2c1ncn2C1CCCCC1`, the Emax on Secretin receptor [1] was 181%.
Same read-out and setting: as for `OC1CCN(c2ccc(Nc3nc(Oc4cccc5ccccc45)nc4c3ncn4C3CCCCC3)cc2)CC1`, the figure is 166%; as for `O=C(O)c1cn(C2CCCCC2)c2nc(Oc3cccc4ccccc34)nc(Nc3ccc(N4CCOCC4)cc3)c12`, 157%.
With `c1ccc(-c2ccc(Nc3nc(Oc4cccc5ccccc45)nc4c3ncn4C3CCCCC3)cc2)cc1`, the Emax on Secretin receptor [2] worked out at 58.8%.
Same read-out and setting: as for `c1ccc2c(Oc3nc(Nc4ccc(-c5cccc6ccccc56)cc4)c4ncn(C5CCCCC5)c4n3)cccc2c1`, the figure is 54.1%.
Turning to `c1ccc(Oc2ccc(Nc3nc(Oc4cccc5ccccc45)nc4c3ncn4C3CCCCC3)cc2)cc1`, the Emax at Secretin receptor [1] was 98.8%.
Same read-out and setting: for `O[C@@H]1CCC[C@H](n2cnc3c(Nc4ccc(N5CCOCC5)cc4)nc(Oc4cccc5ccccc45)nc32)C1` the value was 165%.
Take `c1ccc2c(Oc3nc(Nc4ccc(N5CCOCC5)cc4)c4ncn(C5CCCCC5)c4n3)cccc2c1` [PURMORPHAMINE]: the Activity with Rattus norvegicus [3] is given as around 14%; with Rattus norvegicus [12] it was 10.33%; in the data set on Rattus norvegicus [14] it was 7.63%. The Emax came to 238% on Secretin receptor [4]; 117% on Secretin receptor [5]; 10.3% on Secretin receptor [6]; 103% at Secretin receptor [7]; 204% on Secretin receptor [1]. Besides, the fold change (FC) at Secretin receptor [8] stood at 6.1. Also, the concentration at 24 h in data set [9] is 61 ng/mL. This molecule also came in with a Cmax in data set [10] of 647 ng/mL. The EC50 at Secretin receptor [11] was 191 µM. Besides, the outcome in the data set on Rattus norvegicus [13] was Active. Besides, in data set [15], the half-life is 7.7 h. In data set [16], the concentration at 12 h was 260 ng/mL. In data set [17], the Tmax came out at 0.5 h. For the same molecule, in data set [18], the concentration at 6 h is above 300 ng/mL.
For `Oc1ccc2c(Oc3nc(Nc4ccc(N5CCOCC5)cc4)c4ncn(C5CCCCC5)c4n3)cccc2c1`, the Emax on Secretin receptor [1] was 146%.
Consider `NS(=O)(=O)c1cc(C2(O)NC(=O)c3ccccc32)ccc1Cl` (stereo unspecified) [CHLORTHALIDONE], for which the Activity with Rattus norvegicus [19] is given as 22.72%.
